Measured values from US9994581B2, “Bromodomain inhibitors” (AbbVie Inc., priority 2013, dated 2018).
Read-outs that look alike come from different tables or passages of the source.

How the values were obtained:
BRD4 (BDI-BDII_K57-K550) = BRD4 (BDI-BDII_K57-K550) (Homo sapiens, UniProt O60885); assay: TR-FRET bromodomain binding assay; conditions: His-tagged tandem bromodomain, Alexa647-labeled probe; Ki calculated from IC50s, probe Kd and probe concentration
Protocol: A time-resolved fluorescence resonance energy transfer (TR-FRET) assay was used to determine the affinities of compounds of the Examples listed in Table 1 for the tandem domain of bromodomain BRD4. […] An Alexa647-labeled BET-inhibitor was used as the fluorescent probe in the assay.
TR-FRET data were normalized to the means of 24 no-compound controls (“high”) and 8 controls containing 1 μM un-labeled probe (“low”). Percent inhibition was plotted as a function of compound concentration and the data were fit with the 4 parameter logistic equation to obtain IC50s. Inhibition constants (Ki) were calculated from the IC50s, probe Kd and probe concentration. Typical Z′ values were between 0.65 and 0.75.

[1] = test system: breast cancer cell line MX-1; assay: MX-1 cell line proliferation assay (3-day, Cell Titer Glo); type: cell-based; conditions: 72 hours, read-out: Cellular proliferation: EC50
Protocol: The impact of compounds of the Examples on cancer cell proliferation was determined using the breast cancer cell line MX-1 (ATCC) in a 3-day proliferation assay and the data are reported in Table 1. […] For compound testing, MX-1 cells were plated in 96-well black bottom plates at a density of 5000 cells/well in 90 μL of culture media and incubated at 37° overnight to allow cell adhesion and spreading. Compound dilution series were prepared in DMSO via a 3-fold serial dilution from 3 mM to 0.1 μM. The DMSO dilution series were then diluted 1:100 in phosphate buffered saline, and 10 μL of the resulted solution were added to the appropriate wells of the MX-1 cell plate. The final compound concentrations in the wells were 3, 1, 0.3, 0.1, 0.03, 0.01, 0.003, 0.001, 0.0003, and 0.0001 μM, or 1, 0.3, 0.1, 0.03, 0.01, 0.003, 0.001, 0.0003, 0.0001, and 0.00003 μM.
Luminescence readings from the Cell Titer Glo assay were normalized to the DMSO treated cells and analyzed using the GraphPad Prism software with sigmoidal curve fitting to obtain EC50s.

[2] = test system: LPS induced IL-6 (Interleukin-6) production; assay: LPS (lipopolysaccharide) induced IL-6 production mouse assay; conditions: oral administration one hour before LPS 2.5 mg/kg i.p., serum IL-6 2 hours after LPS, p < 0.05
Protocol: Compounds of the Examples listed in Table 2 were assayed for their ability to inhibit LPS (lipopolysaccharide) induced IL-6 (Interleukin-6) production in mice. Fox Chase SCID® female mice (Charles Rivers Labs, 8 per group) or CD1 female mice received an intraperitoneal challenge of lipopolysaccharide (2.5 mg/kg, L2630 E. coli 0111:B4) one hour after oral administration of compounds. Mice were euthanized 2 hours after lipopolysaccharide injection, blood was removed by cardiac puncture, and then the serum harvested from the blood samples was frozen at −80° C. On the day of the assay the serum samples were brought to room temperature and then diluted 1:20 in phosphate-buffered saline containing 2% bovine serum albumin. Interleukin-6 measurements were performed using a cytokine assay from Meso Scale Discovery (Gaithersburg, Md.) for mouse serum analysis according to the manufacturer's protocol and read on a SECTOR Imager 6000 (Meso Scale Discovery, Gaithersburg, Md.) instrument. Statistical analysis was performed using Prism software (version 5.0) incorporating Dunnett's one way ANOVA. The IL-6 mean and standard deviation of the group of vehicle treated animals were compared with the IL-6 mean and standard deviation of the group treated with drug.

“17-(ethylsulfonyl)-11-fluoro-2-methyl-6,7,8,9-tetrahydrodibenzo[4,5:7,8][1,6]dioxacyclododecino[3,2-c]pyridin-3(2H)-one [Example A-22]” was tested, and the Ki (BRD4 (BDI-BDII_K57-K550)) was 1.51 nM, the EC50 ([1]; MX-1 cells) was 9 nM and the “Inhibition of LPS induced IL-6 production, % inhibition” value (“Inhibition … % inhibition” for short) ([2]; CD1 mouse strain) was 83%.

`CCS(=O)(=O)c1ccc2c(c1)-c1cn(C)c(=O)cc1OCCCc1cc(Cl)ccc1O2` [Example A-3, 10-chloro-16-(ethylsulfonyl)-2-methyl-7,8-dihydro-2H-dibenzo[4,5:7,8][1,6]dioxacycloundecino[3,2-c]pyridin-3(6H)-one] was tested, and the Ki (BRD4 (BDI-BDII_K57-K550)) was 7.54 nM, the EC50 ([1]; Homo sapiens, MX1, MX-1 cells) was 31.1 nM and the “Inhibition … % inhibition” value ([2]; SCID mouse strain) was 78%.

With `CCS(=O)(=O)Nc1ccc2c(c1)-c1cn(C)c(=O)cc1OCCCc1cc(Cl)ccc1O2` [Example A-5, N-(10-chloro-2-methyl-3-oxo-3,6,7,8-tetrahydro-2H-dibenzo[4,5:7,8][1,6]dioxacycloundecino[3,2-c]pyridin-16-yl)ethanesulfonamide] the Ki (BRD4 (BDI-BDII_K57-K550)) was 1.3 nM, the EC50 ([1]; Homo sapiens, MX1, MX-1 cells) was 12.8 nM and the “Inhibition … % inhibition” value ([2]; SCID mouse strain) was 73%.

With `CCS(=O)(=O)Nc1ccc2c(c1)-c1cn(C)c(=O)cc1OCCCc1cc(F)cc(F)c1O2` [Example A-6, N-(10,12-difluoro-2-methyl-3-oxo-3,6,7,8-tetrahydro-2H-dibenzo[4,5:7,8][1,6]dioxacycloundecino[3,2-c]pyridin-16-yl)ethanesulfonamide] the Ki (BRD4 (BDI-BDII_K57-K550)) was 1.51 nM, the EC50 ([1]; Homo sapiens, MX1, MX-1 cells) was 9.6 nM and the “Inhibition … % inhibition” value ([2]; CD1 mouse strain) was 86%.

In the case of `CCS(=O)(=O)Nc1ccc2c(c1)-c1cn(C)c(=O)cc1OCCCCc1cc(Cl)ccc1O2` [Example A-9, N-(11-chloro-2-methyl-3-oxo-2,3,6,7,8,9-hexahydrodibenzo[4,5:7,8][1,6]dioxacyclododecino[3,2-c]pyridin-17-yl)ethanesulfonamide], the Ki (BRD4 (BDI-BDII_K57-K550)) is reported as 0.93 nM, the EC50 ([1]; Homo sapiens, MX1, MX-1 cells) is reported as 5.69 nM and the “Inhibition … % inhibition” value ([2]; CD1 mouse strain) is reported as 83%.

For `Cn1cc2c(cc1=O)OCCCc1cc(Cl)ccc1Oc1ccc(NS(C)(=O)=O)cc1-2` [Example A-12, N-(10-chloro-2-methyl-3-oxo-3,6,7,8-tetrahydro-2H-dibenzo[4,5:7,8][1,6]dioxacycloundecino[3,2-c]pyridin-16-yl)methanesulfonamide], the Ki (BRD4 (BDI-BDII_K57-K550)) was 2.16 nM, the EC50 ([1]; Homo sapiens, MX1, MX-1 cells) was 19.1 nM and the “Inhibition … % inhibition” value ([2]; CD1 mouse strain) was 47%.

In the case of `CCS(=O)(=O)c1ccc2c(c1)-c1cn(C)c(=O)cc1OCCCCc1cc(Cl)ccc1O2` [Example A-13, 11-chloro-17-(ethylsulfonyl)-2-methyl-6,7,8,9-tetrahydrodibenzo[4,5:7,8][1,6]dioxacyclododecino[3,2-c]pyridin-3(2H)-one], the Ki (BRD4 (BDI-BDII_K57-K550)) is reported as 0.99 nM, the EC50 ([1]; Homo sapiens, MX1, MX-1 cells) is reported as 13.6 nM and the “Inhibition … % inhibition” value ([2]; CD1 mouse strain) is reported as 82%.

With `CCS(=O)(=O)Nc1ccc2c(c1)-c1cn(C)c(=O)cc1OCCCCc1cc(F)cc(F)c1O2` [Example A-14, N-(11,13-difluoro-2-methyl-3-oxo-2,3,6,7,8,9-hexahydrodibenzo[4,5:7,8][1,6]dioxacyclododecino[3,2-c]pyridin-17-yl)ethanesulfonamide] the “Inhibition … % inhibition” value ([2]; CD1 mouse strain) was 77%.

In the case of `CCS(=O)(=O)Nc1ccc2c(c1)-c1cn(C)c(=O)cc1OCCNC(=O)c1cc(Cl)ccc1O2` [Example B-4, N-(11-chloro-2-methyl-3,9-dioxo-2,3,6,7,8,9-hexahydrodibenzo[f,i]pyrido[3,4-k][1,8,4]dioxazacyclododecin-17-yl)ethanesulfonamide], the Ki (BRD4 (BDI-BDII_K57-K550)) is reported as 10.5 nM and the EC50 ([1]; Homo sapiens, MX1, MX-1 cells) is reported as 257 nM.

In the case of `CCS(=O)(=O)Nc1ccc2c(c1)-c1cn(C)c(=O)cc1OCCN(S(C)(=O)=O)Cc1cc(Cl)ccc1O2` [Example B-6, N-[11-chloro-2-methyl-8-(methylsulfonyl)-3-oxo-2,3,6,7,8,9-hexahydrodibenzo[f,i]pyrido[3,4-k][1,8,4]dioxazacyclododecin-17-yl]ethanesulfonamide], the Ki (BRD4 (BDI-BDII_K57-K550)) is reported as 1.57 nM and the EC50 ([1]; Homo sapiens, MX1, MX-1 cells) is reported as 17.1 nM.

`CCS(=O)(=O)Nc1ccc2c(c1)-c1cn(C)c(=O)cc1OCCN(C(C)=O)Cc1cc(Cl)ccc1O2` [Example B-7, N-(8-acetyl-11-chloro-2-methyl-3-oxo-2,3,6,7,8,9-hexahydrodibenzo[f,i]pyrido[3,4-k][1,8,4]dioxazacyclododecin-17-yl)ethanesulfonamide] gave a Ki (BRD4 (BDI-BDII_K57-K550)) of 1.61 nM and an EC50 ([1]; Homo sapiens, MX1, MX-1 cells) of 45.4 nM.

For `CCOC(=O)N1CCOc2cc(=O)n(C)cc2-c2cc(NS(=O)(=O)CC)ccc2Oc2ccc(Cl)cc2C1` [Example B-8, ethyl 11-chloro-17-[(ethylsulfonyl)amino]-2-methyl-3-oxo-2,3,6,7-tetrahydrodibenzo[f,i]pyrido[3,4-k][1,8,4]dioxazacyclododecine-8(9H)-carboxylate], the Ki (BRD4 (BDI-BDII_K57-K550)) was 0.97 nM and the EC50 ([1]; Homo sapiens, MX1, MX-1 cells) was 17 nM.

For `CCNC(=O)N1CCOc2cc(=O)n(C)cc2-c2cc(NS(=O)(=O)CC)ccc2Oc2ccc(Cl)cc2C1` [Example B-9, 11-chloro-N-ethyl-17-[(ethylsulfonyl)amino]-2-methyl-3-oxo-2,3,6,7-tetrahydrodibenzo[f,i]pyrido[3,4-k][1,8,4]dioxazacyclododecine-8(9H)-carboxamide], the Ki (BRD4 (BDI-BDII_K57-K550)) was 0.64 nM and the EC50 ([1]; Homo sapiens, MX1, MX-1 cells) was 47.3 nM.

Work on `CCS(=O)(=O)Nc1ccc2c(c1)-c1cn(C)c(=O)cc1OCCN(C(=O)OC(C)(C)C)Cc1cc(Cl)ccc1O2` [Example B-10, tert-butyl 11-chloro-17-[(ethylsulfonyl)amino]-2-methyl-3-oxo-2,3,6,7-tetrahydrodibenzo[f,i]pyrido[3,4-k][1,8,4]dioxazacyclododecine-8(9H)-carboxylate] yielded a Ki (BRD4 (BDI-BDII_K57-K550)) of 1.24 nM and an EC50 ([1]; Homo sapiens, MX1, MX-1 cells) of 29.7 nM.

`CCS(=O)(=O)Nc1ccc2c(c1)-c1cn(C)c(=O)cc1OCCNCc1cc(Cl)ccc1O2` [Example B-11, N-(11-chloro-2-methyl-3-oxo-2,3,6,7,8,9-hexahydrodibenzo[f,i]pyrido[3,4-k][1,8,4]dioxazacyclododecin-17-yl)ethanesulfonamide] showed a Ki (BRD4 (BDI-BDII_K57-K550)) of 9.45 nM and an EC50 ([1]; Homo sapiens, MX1, MX-1 cells) of 25.1 nM.

Work on `CCS(=O)(=O)Nc1ccc2c(c1)-c1cn(C)c(=O)cc1OCCN(CC1CC1)Cc1cc(Cl)ccc1O2` [Example B-12, N-[11-chloro-8-(cyclopropylmethyl)-2-methyl-3-oxo-2,3,6,7,8,9-hexahydrodibenzo[f,i]pyrido[3,4-k][1,8,4]dioxazacyclododecin-17-yl]ethanesulfonamide] yielded a Ki (BRD4 (BDI-BDII_K57-K550)) of 5.1 nM and an EC50 ([1]; Homo sapiens, MX1, MX-1 cells) of 8.01 nM.

`CCS(=O)(=O)Nc1ccc2c(c1)-c1cn(C)c(=O)cc1OCCN(CCC(F)(F)F)Cc1cc(Cl)ccc1O2` [Example B-13, N-[11-chloro-2-methyl-3-oxo-8-(3,3,3-trifluoropropyl)-2,3,6,7,8,9-hexahydrodibenzo[f,i]pyrido[3,4-k][1,8,4]dioxazacyclododecin-17-yl]ethanesulfonamide] gave a Ki (BRD4 (BDI-BDII_K57-K550)) of 2.22 nM and an EC50 ([1]; Homo sapiens, MX1, MX-1 cells) of 16.8 nM.

`CCS(=O)(=O)Nc1ccc2c(c1)-c1cn(C)c(=O)cc1OCCN(C1CCC1)Cc1cc(Cl)ccc1O2` [Example B-14, N-(11-chloro-8-cyclobutyl-2-methyl-3-oxo-2,3,6,7,8,9-hexahydrodibenzo[f,i]pyrido[3,4-k][1,8,4]dioxazacyclododecin-17-yl)ethanesulfonamide] gave a Ki (BRD4 (BDI-BDII_K57-K550)) of 2.14 nM and an EC50 ([1]; Homo sapiens, MX1, MX-1 cells) of 5.95 nM.

With `CCOC(=O)NS(=O)(=O)N1CCOc2cc(=O)n(C)cc2-c2cc(NS(=O)(=O)CC)ccc2Oc2ccc(Cl)cc2C1` [Example B-15, ethyl ({11-chloro-17-[(ethylsulfonyl)amino]-2-methyl-3-oxo-2,3,6,7-tetrahydrodibenzo[f,i]pyrido[3,4-k][1,8,4]dioxazacyclododecin-8(9H)-yl}sulfonyl)carbamate] the Ki (BRD4 (BDI-BDII_K57-K550)) was 1 nM and the EC50 ([1]; Homo sapiens, MX1, MX-1 cells) was 153 nM.

`CCS(=O)(=O)Nc1ccc2c(c1)-c1cn(C)c(=O)cc1OCCN(S(=O)(=O)NC(C)=O)Cc1cc(Cl)ccc1O2` [Example B-16, N-({11-chloro-17-[(ethylsulfonyl)amino]-2-methyl-3-oxo-2,3,6,7-tetrahydrodibenzo[f,i]pyrido[3,4-k][1,8,4]dioxazacyclododecin-8(9H)-yl}sulfonyl)acetamide] showed a Ki (BRD4 (BDI-BDII_K57-K550)) of 1.28 nM and an EC50 ([1]; Homo sapiens, MX1, MX-1 cells) of over 1000 nM.

Work on `Cn1cc2c(cc1=O)OCCOCc1cc(Cl)ccc1Oc1ccc(CS(C)(=O)=O)cc1-2` [Example B-17, 11-chloro-2-methyl-17-((methylsulfonyl)methyl)-6,7-dihydro-2H-dibenzo[6,7:9,10][1,4,8]trioxacyclododecino[11,12-c]pyridin-3(9H)-one] yielded a Ki (BRD4 (BDI-BDII_K57-K550)) of 7.7 nM and an EC50 ([1]; Homo sapiens, MX1, MX-1 cells) of 30.9 nM.

With `CCOC(=O)c1ccc2c(c1)-c1cn(C)c(=O)cc1OCCOCc1cc(Cl)ccc1O2` [Example B-17c, ethyl 11-chloro-2-methyl-3-oxo-3,6,7,9-tetrahydro-2H-dibenzo[6,7:9,10][1,4,8]trioxacyclododecino[11,12-c]pyridine-17-carboxylate] the Ki (BRD4 (BDI-BDII_K57-K550)) was 10.7 nM and the EC50 ([1]; Homo sapiens, MX1, MX-1 cells) was 6.7 nM.
